The IC50 is the point on the concentration scale where inhibition reaches its midpoint. The half-life is the time needed for the level to fall by half in the phase considered.

Data set [1] concerns the target Epidermal growth factor receptor (Homo sapiens, UniProt P00533). The experiment in a line: Inhibition of human EGFR (669 to 1210 residues) cytoplasmic domain expressed in baculovirus infected Sf21 cells incubated for 1 hrs in the presence of ATP by mobility shift assay.
Data set [2] addresses ALK tyrosine kinase receptor (Homo sapiens, UniProt Q9UM73, L1196M). The experiment in a line: Inhibition of N-terminal GST-tagged human ceritinib-resistant ALK L1196M mutant (1058 to 1620 residues) cytoplasmic domain expressed in baculovirus infected Sf21 cells incubated for 1 hrs in the presence of ATP by mobility shift assay.
In a further data set the test system is KARPAS-299. The data set can be described thus: Antiproliferative activity against NPM-ALK positive human KARPAS-299 cells assessed as inhibition of cell growth incubated for 72 hrs by MTT assay. The format is functional, cell-based. Particulars: KARPAS-299, 72 h. Background: Tetrazolium dyes change colour on reduction, which living cells bring about.
The next data set relates to NCI-H2228. The data set can be described thus: Antiproliferative activity against EML4-ALK positive human NCI-H2228 cells assessed as inhibition of cell growth incubated for 72 hrs by MTT assay. It is filed as functional, cell-based. The note with it: NCI-H2228, 72 h.
A further data set concerns A549. The data set can be described thus: Antiproliferative activity against EGFR positive human A549 cells assessed as inhibition of cell growth incubated for 72 hrs by MTT assay. Particulars: A549, 72 h. The format is functional, cell-based.
Data set [3] has as its target ALK tyrosine kinase receptor (Homo sapiens, UniProt Q9UM73). The data set can be described thus: Inhibition of N-terminal GST-tagged human wild type ALK (1058 to 1620 residues) cytoplasmic domain expressed in baculovirus infected Sf21 cells incubated for 1 hrs in the presence of ATP by mobility shift assay.
The target of data set [4] is ALK tyrosine kinase receptor (Homo sapiens, UniProt Q9UM73, G1202R). The data set can be described thus: Inhibition of N-terminal GST-tagged human ceritinib-resistant ALK G1202R mutant (1058 to 1620 residues) cytoplasmic domain expressed in baculovirus infected Sf21 cells incubated for 1 hrs in the presence of ATP by mobility shift assay.
Sequence of ALK tyrosine kinase receptor (Homo sapiens, UniProt Q9UM73, G1202R) (Q9UM73 19-1620 G1202R limits assumed): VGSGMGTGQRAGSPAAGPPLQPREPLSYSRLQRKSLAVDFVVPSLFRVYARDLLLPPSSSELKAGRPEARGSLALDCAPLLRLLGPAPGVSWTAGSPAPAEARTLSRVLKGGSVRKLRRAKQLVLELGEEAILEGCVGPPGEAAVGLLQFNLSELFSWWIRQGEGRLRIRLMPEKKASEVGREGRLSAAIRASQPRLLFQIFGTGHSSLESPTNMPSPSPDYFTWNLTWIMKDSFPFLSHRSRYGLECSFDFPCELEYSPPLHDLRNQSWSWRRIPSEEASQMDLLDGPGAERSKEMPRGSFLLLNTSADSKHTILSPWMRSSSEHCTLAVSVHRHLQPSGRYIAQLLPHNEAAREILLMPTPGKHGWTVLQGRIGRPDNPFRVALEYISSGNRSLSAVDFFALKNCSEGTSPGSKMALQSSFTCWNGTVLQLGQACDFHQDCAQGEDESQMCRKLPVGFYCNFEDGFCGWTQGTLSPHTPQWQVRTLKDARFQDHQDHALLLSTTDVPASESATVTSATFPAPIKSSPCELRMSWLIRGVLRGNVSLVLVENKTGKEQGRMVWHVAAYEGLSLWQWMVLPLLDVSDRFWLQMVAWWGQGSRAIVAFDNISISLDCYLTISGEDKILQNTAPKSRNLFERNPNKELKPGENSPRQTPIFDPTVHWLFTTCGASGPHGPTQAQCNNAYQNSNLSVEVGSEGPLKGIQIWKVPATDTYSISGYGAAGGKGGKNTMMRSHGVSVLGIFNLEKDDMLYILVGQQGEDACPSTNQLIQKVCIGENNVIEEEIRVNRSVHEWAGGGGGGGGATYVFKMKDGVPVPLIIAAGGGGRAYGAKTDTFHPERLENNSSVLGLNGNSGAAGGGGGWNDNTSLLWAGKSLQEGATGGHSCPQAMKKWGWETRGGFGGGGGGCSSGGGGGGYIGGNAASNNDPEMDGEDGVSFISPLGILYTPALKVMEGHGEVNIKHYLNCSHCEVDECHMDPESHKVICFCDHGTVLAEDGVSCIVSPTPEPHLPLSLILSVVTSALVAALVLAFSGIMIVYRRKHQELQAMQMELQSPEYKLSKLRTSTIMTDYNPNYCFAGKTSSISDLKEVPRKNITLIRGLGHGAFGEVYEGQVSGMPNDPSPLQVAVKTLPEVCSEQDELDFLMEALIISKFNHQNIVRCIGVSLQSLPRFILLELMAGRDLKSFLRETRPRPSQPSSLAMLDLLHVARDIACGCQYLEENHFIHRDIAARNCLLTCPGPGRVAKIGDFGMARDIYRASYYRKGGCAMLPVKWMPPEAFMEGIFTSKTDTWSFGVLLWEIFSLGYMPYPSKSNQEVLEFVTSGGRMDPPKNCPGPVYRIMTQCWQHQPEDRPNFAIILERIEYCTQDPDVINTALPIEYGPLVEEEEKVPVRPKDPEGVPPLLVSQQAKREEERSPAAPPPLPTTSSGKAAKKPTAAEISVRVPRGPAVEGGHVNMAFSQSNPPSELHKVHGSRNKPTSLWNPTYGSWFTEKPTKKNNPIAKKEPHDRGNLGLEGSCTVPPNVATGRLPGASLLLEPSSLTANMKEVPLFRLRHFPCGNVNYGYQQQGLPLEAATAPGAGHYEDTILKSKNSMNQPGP
The nature of data set [5]: Metabolic stability in Sprague-Dawley rat liver microsomes assessed as half-life at 10 uM preincubated for 5 mins in the presence of NADPH followed by microsomal addition and measured upto 60 mins by HPLC analysis. It is filed as ADME, Microsome. Particulars: time < 65 min. For orientation: Microsomes from liver hold many membrane-bound enzymes, among them those of drug oxidation.

Sequence of Epidermal growth factor receptor (P00533 whole entry, the tested form may be a part): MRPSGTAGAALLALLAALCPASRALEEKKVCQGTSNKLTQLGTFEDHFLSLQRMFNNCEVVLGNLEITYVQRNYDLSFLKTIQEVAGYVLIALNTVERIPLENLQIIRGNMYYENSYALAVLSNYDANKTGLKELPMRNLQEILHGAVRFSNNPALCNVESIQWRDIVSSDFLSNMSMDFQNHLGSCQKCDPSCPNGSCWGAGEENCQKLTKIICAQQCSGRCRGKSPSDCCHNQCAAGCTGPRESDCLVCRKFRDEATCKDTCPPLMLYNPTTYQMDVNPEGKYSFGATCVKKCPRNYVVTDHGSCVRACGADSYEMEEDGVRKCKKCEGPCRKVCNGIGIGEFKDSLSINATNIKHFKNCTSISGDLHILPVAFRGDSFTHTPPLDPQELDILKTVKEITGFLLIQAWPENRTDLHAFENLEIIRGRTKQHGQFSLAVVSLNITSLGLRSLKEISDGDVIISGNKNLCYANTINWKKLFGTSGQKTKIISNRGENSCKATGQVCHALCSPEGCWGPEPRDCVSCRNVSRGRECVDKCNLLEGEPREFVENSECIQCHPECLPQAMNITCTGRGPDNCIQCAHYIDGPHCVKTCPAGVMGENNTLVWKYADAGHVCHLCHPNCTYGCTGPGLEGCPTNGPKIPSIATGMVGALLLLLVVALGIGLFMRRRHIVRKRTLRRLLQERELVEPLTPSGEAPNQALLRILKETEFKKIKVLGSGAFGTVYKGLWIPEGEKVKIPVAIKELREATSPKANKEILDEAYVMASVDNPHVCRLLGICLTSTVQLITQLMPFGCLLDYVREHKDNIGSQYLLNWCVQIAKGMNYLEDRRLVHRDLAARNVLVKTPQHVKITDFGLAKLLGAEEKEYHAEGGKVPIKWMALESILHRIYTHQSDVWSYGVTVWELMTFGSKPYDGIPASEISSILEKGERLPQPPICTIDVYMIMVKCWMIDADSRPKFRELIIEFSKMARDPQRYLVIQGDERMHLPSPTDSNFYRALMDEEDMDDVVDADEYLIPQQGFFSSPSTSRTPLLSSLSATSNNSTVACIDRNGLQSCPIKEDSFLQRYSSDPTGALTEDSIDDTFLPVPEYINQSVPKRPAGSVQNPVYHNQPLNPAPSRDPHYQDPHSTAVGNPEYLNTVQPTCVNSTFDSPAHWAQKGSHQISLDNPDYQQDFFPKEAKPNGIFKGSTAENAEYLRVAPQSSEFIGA
Sequence of ALK tyrosine kinase receptor (Homo sapiens, UniProt Q9UM73, L1196M) (Q9UM73 19-1620 L1196M limits assumed): as the sequence (Q9UM73 19-1620 G1202R limits assumed) above, with L1178M, R1184G counted along it
Sequence of ALK tyrosine kinase receptor (Homo sapiens, UniProt Q9UM73) (Q9UM73 whole entry, the tested form may be a part): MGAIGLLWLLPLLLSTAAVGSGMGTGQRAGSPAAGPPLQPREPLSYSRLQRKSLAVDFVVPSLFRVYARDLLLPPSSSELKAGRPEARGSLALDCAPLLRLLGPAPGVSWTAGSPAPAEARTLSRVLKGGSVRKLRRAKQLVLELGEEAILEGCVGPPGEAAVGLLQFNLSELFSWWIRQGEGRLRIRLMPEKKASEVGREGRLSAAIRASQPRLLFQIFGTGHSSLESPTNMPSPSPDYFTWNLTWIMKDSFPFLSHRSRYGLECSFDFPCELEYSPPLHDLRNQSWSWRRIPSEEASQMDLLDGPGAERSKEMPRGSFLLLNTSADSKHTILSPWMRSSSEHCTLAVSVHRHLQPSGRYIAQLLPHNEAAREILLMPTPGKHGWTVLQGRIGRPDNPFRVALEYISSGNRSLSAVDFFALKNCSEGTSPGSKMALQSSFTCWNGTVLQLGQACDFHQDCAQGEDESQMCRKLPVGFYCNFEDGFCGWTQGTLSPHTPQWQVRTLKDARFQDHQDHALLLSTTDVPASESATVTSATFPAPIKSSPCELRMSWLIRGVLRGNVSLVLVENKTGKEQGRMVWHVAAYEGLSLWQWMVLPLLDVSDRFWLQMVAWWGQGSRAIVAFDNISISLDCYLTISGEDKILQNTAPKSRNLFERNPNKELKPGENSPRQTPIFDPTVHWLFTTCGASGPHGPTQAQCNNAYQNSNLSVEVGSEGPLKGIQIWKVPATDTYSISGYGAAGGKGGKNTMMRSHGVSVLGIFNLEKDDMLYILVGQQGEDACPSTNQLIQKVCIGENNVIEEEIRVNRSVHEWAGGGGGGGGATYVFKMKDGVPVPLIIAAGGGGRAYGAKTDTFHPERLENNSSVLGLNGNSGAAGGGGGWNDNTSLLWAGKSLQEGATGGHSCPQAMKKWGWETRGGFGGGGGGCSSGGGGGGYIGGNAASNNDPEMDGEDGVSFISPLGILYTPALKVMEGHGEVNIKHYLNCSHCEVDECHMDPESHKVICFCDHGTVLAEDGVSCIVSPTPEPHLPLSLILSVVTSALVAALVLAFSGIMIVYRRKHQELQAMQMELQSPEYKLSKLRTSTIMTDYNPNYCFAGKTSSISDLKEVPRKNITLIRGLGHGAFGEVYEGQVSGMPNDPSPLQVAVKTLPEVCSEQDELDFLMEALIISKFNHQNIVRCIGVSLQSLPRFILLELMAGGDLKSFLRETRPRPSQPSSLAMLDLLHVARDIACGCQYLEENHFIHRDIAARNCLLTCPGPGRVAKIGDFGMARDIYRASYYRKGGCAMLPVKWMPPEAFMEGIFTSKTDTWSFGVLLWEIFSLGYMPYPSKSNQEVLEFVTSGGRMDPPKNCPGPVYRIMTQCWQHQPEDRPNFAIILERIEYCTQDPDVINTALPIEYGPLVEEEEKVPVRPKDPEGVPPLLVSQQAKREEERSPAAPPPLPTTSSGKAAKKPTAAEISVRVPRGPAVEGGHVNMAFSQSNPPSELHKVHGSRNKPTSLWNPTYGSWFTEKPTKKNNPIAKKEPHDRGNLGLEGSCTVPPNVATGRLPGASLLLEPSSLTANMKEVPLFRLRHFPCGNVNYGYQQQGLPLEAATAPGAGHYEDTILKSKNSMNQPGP

For `Cc1[nH]c2cc(Nc3ncc(Cl)c(Nc4ccccc4NS(C)(=O)=O)n3)ccc2c1C(=O)N1CCC(C)CC1`, the IC50 in data set [1] was over 1000 nM; in data set [2], 12.7 nM; with KARPAS-299 it was 52 nM; in the data set on NCI-H2228 it was 203 nM; in the data set with A549, over 20000 nM; in data set [3], 8.3 nM. Further, the IC50 in data set [4] was found to be 6.5 nM.

As to `Cc1[nH]c2cc(Nc3ncc(Cl)c(Nc4ccccc4NS(C)(=O)=O)n3)ccc2c1C(=O)N1CCC(O)CC1`, the half-maximal inhibitory concentration (IC50) in the data set on KARPAS-299 was 141 nM; in the data set with NCI-H2228, 257 nM; in the data set with A549, over 20000 nM.

On to `CNC(=O)c1ccccc1Nc1nc(Nc2ccc3c(C(=O)N4CCN(CCO)CC4)c(C)[nH]c3c2)ncc1Cl`, for which the IC50 with KARPAS-299 amounted to 826 nM; in the data set with NCI-H2228, 933 nM; with A549, 13300 nM.

Regarding `Cc1[nH]c2cc(Nc3ncc(Cl)c(Nc4ccccc4NS(C)(=O)=O)n3)ccc2c1C(=O)N1CC(O)C1`, the results for the IC50 in the data set with KARPAS-299, with NCI-H2228 and in the data set on A549 were 802 nM, 494 nM and over 20000 nM, respectively.

For the molecule `CCCc1[nH]c2cc(Nc3ncc(Cl)c(Nc4ccccc4C(=O)NC)n3)ccc2c1C(=O)OCC`, the IC50 in the data set on KARPAS-299 was 1170 nM; in the data set on NCI-H2228, 4350 nM; with A549, 7750 nM.

Take `COc1cc(SCc2ccc(CN(C)C)o2)ccc1Nc1ncc(Cl)c(Nc2ccccc2NS(C)(=O)=O)n1`: the half-life at 10 µM in data set [5] was 9.7 min.

On to `CNC(=O)c1ccccc1Nc1nc(Nc2ccc3c(C(=O)OC)c(C)[nH]c3c2)ncc1Cl`, for which the IC50 was over 1000 nM in data set [1]; 3.4 nM in data set [2]; 37 nM in the data set with KARPAS-299; 77 nM with NCI-H2228; 3720 nM in the data set with A549; 3 nM in data set [3]. Further, the IC50 in data set [4] was found to be 6.3 nM.

On to `CCN1CCN(C(=O)c2c(C)[nH]c3cc(Nc4ncc(Cl)c(Nc5ccccc5NS(C)(=O)=O)n4)ccc23)CC1`, for which the figures for the IC50 in the data set on KARPAS-299, in the data set with NCI-H2228 and in the data set on A549 were 132 nM, 247 nM and over 20000 nM, respectively.

As for `Cc1[nH]c2cc(Nc3ncc(Cl)c(Nc4ccccc4NS(C)(=O)=O)n3)ccc2c1C(=O)N1CCN(CCO)CC1`, the figures for the IC50 in the data set on KARPAS-299, with NCI-H2228 and with A549 were 735 nM, 329 nM and over 20000 nM, respectively.

In the case of `CNC(=O)c1ccccc1Nc1nc(Nc2ccc3c(C(=O)N4CCCCC4)c(C)[nH]c3c2)ncc1Cl`, the 50% inhibitory concentration (IC50) in the data set on KARPAS-299 worked out at 63 nM; in the data set on NCI-H2228 it was 99 nM; in the data set on A549, 448 nM.

For the molecule `CCc1[nH]c2cc(Nc3ncc(Cl)c(Nc4ccccc4C(=O)NC)n3)ccc2c1C(=O)OC`, the IC50 came to 110 nM in the data set with KARPAS-299, 790 nM with NCI-H2228 and 3720 nM in the data set with A549.

For the molecule `CCOC(=O)c1c(C)[nH]c2cc(Nc3ncc(Cl)c(Nc4ccccc4C(=O)NC)n3)ccc12`, the IC50 in the data set on KARPAS-299 is 150 nM; in the data set on NCI-H2228, 170 nM; in the data set on A549, 3360 nM.

On to `Cc1[nH]c2cc(Nc3ncc(Cl)c(Nc4ccccc4NS(C)(=O)=O)n3)ccc2c1C(=O)N1CCC[C@@H]1CO`, for which the values for the IC50 in the data set with KARPAS-299, with NCI-H2228 and in the data set on A549 were 485 nM, 2570 nM and 17800 nM, respectively.

In the case of `Cc1[nH]c2cc(Nc3ncc(Cl)c(Nc4ccccc4NS(C)(=O)=O)n3)ccc2c1C(=O)N1CCCCC1`, the 50% inhibitory concentration (IC50) with KARPAS-299 is 247 nM; in the data set with NCI-H2228, 260 nM; with A549, 5920 nM.

As for `Cc1[nH]c2cc(Nc3ncc(Cl)c(Nc4ccccc4NS(C)(=O)=O)n3)ccc2c1C(=O)O`, the concentration for half-maximal inhibition (IC50) in the data set with KARPAS-299 was 2160 nM; with NCI-H2228, 2600 nM; in the data set on A549, 5800 nM.

Regarding `Cc1[nH]c2cc(Nc3ncc(Cl)c(Nc4ccccc4NS(C)(=O)=O)n3)ccc2c1C(=O)N1CCN(C)CC1`, the IC50 in the data set on KARPAS-299 was 113 nM; in the data set with NCI-H2228, 214 nM; in the data set with A549, over 20000 nM.

Consider `COC(=O)c1c(C)[nH]c2cc(Nc3ncc(Cl)c(Nc4ccccc4NC(C)=O)n3)ccc12`, for which the IC50 worked out at 600 nM with KARPAS-299, 2560 nM in the data set with NCI-H2228 and 2960 nM in the data set with A549.

For `Cc1[nH]c2cc(Nc3ncc(Cl)c(Nc4ccccc4NS(C)(=O)=O)n3)ccc2c1C(=O)N(C)C`, the IC50 with KARPAS-299 was 50 nM; with NCI-H2228, 97 nM; with A549, 4140 nM.

Consider `CNC(=O)c1ccccc1Nc1nc(Nc2ccc3c(C(=O)N4CCC(C)CC4)c(C)[nH]c3c2)ncc1Cl`, for which the IC50 in data set [1] was over 1000 nM; in data set [2] it was 4.8 nM; in the data set with KARPAS-299, 86 nM; in the data set with NCI-H2228, 129 nM; in the data set on A549, over 20000 nM; in data set [3], 3.9 nM. Besides, the IC50 in data set [4] is 6.7 nM.

For the molecule `CCN1CCN(C(=O)c2c(C)[nH]c3cc(Nc4ncc(Cl)c(Nc5ccccc5C(=O)NC)n4)ccc23)CC1`, the IC50 with KARPAS-299 was determined as 61 nM; in the data set with NCI-H2228 it was 571 nM; with A549, 6630 nM.

In the case of `Cc1[nH]c2cc(Nc3ncc(Cl)c(Nc4ccccc4NS(C)(=O)=O)n3)ccc2c1C(=O)N1CCOCC1`, the IC50 was over 1000 nM in data set [1]; 6.6 nM in data set [2]; 86 nM in the data set with KARPAS-299; 317 nM in the data set with NCI-H2228; 5360 nM with A549; 5.7 nM in data set [3]. Further, the IC50 in data set [4] stood at 5.9 nM.

As for `CNC(=O)c1ccccc1Nc1nc(Nc2ccc3c(C(=O)N4CCOCC4)c(C)[nH]c3c2)ncc1Cl`, the IC50 amounted to 42 nM in the data set with KARPAS-299, 69 nM in the data set with NCI-H2228 and 5790 nM in the data set with A549.

On to `CNC(=O)c1ccccc1Nc1nc(Nc2ccc3c(C(=O)N4CCN(C)CC4)c(C)[nH]c3c2)ncc1Cl`, for which the half-maximal inhibitory concentration (IC50) in the data set on KARPAS-299 is 36 nM; in the data set with NCI-H2228 it was 83 nM; in the data set with A549, 720 nM.

With `COC(=O)c1c(C)[nH]c2cc(Nc3ncc(Cl)c(Nc4ccccc4NS(C)(=O)=O)n3)ccc12`, the IC50 in data set [1] was over 1000 nM; in data set [2] it was 3.2 nM; in the data set with KARPAS-299, 45 nM; in the data set on NCI-H2228, 82 nM; with A549 it was 1150 nM; in data set [3], 3.8 nM. Moreover, in data set [4], the 50% inhibitory concentration (IC50) was 8.9 nM.

For the molecule `Cc1[nH]c2cc(Nc3ncc(Cl)c(Nc4ccccc4NS(C)(=O)=O)n3)ccc2c1C(=O)N1CCSCC1`, the 50% inhibitory concentration (IC50) was 375 nM in the data set on KARPAS-299, 828 nM in the data set with NCI-H2228 and 4220 nM with A549.

On to `CCOC(=O)c1c(C)[nH]c2cc(Nc3ncc(Cl)c(Nc4ccccc4NS(C)(=O)=O)n3)ccc12`, for which the IC50 turned out to be 53 nM in the data set on KARPAS-299, 91 nM with NCI-H2228 and 1470 nM in the data set on A549.

Consider `Cc1[nH]c2cc(Nc3ncc(Cl)c(Nc4ccccc4NS(C)(=O)=O)n3)ccc2c1C(=O)NCCO`, for which the IC50 in the data set with KARPAS-299 is 243 nM; in the data set on NCI-H2228, 307 nM; with A549 it was over 20000 nM.

For `CNC(=O)c1ccccc1Nc1nc(Nc2ccc3c(C(=O)N4CCCC4)c(C)[nH]c3c2)ncc1Cl`, the IC50 is 39 nM in the data set with KARPAS-299, 70 nM in the data set with NCI-H2228 and 2720 nM in the data set on A549.

For the molecule `CNC(=O)c1ccccc1Nc1nc(Nc2ccc3c(C(=O)N4CC(O)C4)c(C)[nH]c3c2)ncc1Cl`, the results for the IC50 with KARPAS-299, in the data set on NCI-H2228 and in the data set on A549 were 782 nM, 2170 nM and 180 nM, respectively.

In the case of `CNC(=O)c1ccccc1Nc1nc(Nc2ccc3c(C(=O)N4CCC[C@@H]4CO)c(C)[nH]c3c2)ncc1Cl`, the IC50 in the data set on KARPAS-299 was 558 nM; with NCI-H2228 it was 732 nM; with A549 it was 5760 nM.

Regarding `CCOC(=O)c1c(CC)[nH]c2cc(Nc3ncc(Cl)c(Nc4ccccc4C(=O)NC)n3)ccc12`, the IC50 stood at 970 nM in the data set with KARPAS-299, 1370 nM with NCI-H2228 and 6230 nM in the data set on A549.

On to `Cc1[nH]c2cc(Nc3ncc(Cl)c(Nc4ccccc4NS(C)(=O)=O)n3)ccc2c1C(=O)N1CCCC1`, for which the IC50 in the data set on KARPAS-299 was determined as 52 nM; in the data set on NCI-H2228 it was 102 nM; with A549 it was 974 nM.

On to `CNC(=O)c1ccccc1Nc1nc(Nc2ccc3c(C(=O)N4CCC(O)CC4)c(C)[nH]c3c2)ncc1Cl`, for which the IC50 is over 1000 nM in data set [1]; 13.7 nM in data set [2]; 52 nM in the data set with KARPAS-299; 163 nM with NCI-H2228; 1900 nM in the data set on A549; 10.2 nM in data set [3]. Further, in data set [4], the IC50 came out at 5.3 nM.

The record behind these values is ChEMBL document CHEMBL5126595, “Identification and anti-tumor evaluation of 3-acyl-indol-based 2,4-diarylaminopyrimidine analogues as potent ALK inhibitors capable of overcoming drug-resistant mutants” (Eur J Med Chem, 2022).
